Laboratory results published in the supplement of paper PMC10307832.

Columns and labels:
Test in all cases: relative viability (nuclei count vs DMSO), 5 days (fraction); higher = more cells survive
Tozasertib + Trametinib = compound: Cc1cc(Nc2cc(N3CCN(C)CC3)nc(Sc3ccc(NC(=O)C4CC4)cc3)n2)n[nH]1 [Tozasertib] + CC(=O)Nc1cccc(-n2c(=O)n(C3CC3)c(=O)c3c(Nc4ccc(I)cc4F)n(C)c(=O)c(C)c32)c1 [Trametinib] (partner 0.02 µM)
Method in brief: (§1)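 Relative viability is defined as nuclei in treated wells over nuclei in vehicle wells. Duplicate plates were run and medians reported. Lung cancer cell lines in 1536-well plates were dosed by pin tool one day after seeding, with one drug or with a fixed anchor-drug dose plus five library-drug doses (not always all listed) in √10 steps, and nuclei were counted after 5 days.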

Tozasertib + Linsitinib = compound: Cc1cc(Nc2cc(N3CCN(C)CC3)nc(Sc3ccc(NC(=O)C4CC4)cc3)n2)n[nH]1 [Tozasertib] + C[C@]1(O)C[C@@H](c2nc(-c3ccc4ccc(-c5ccccc5)nc4c3)c3c(N)nccn32)C1 [Linsitinib] (partner 1 µM)
Method in brief: as §1

Tozasertib + Phenformin = compound: Cc1cc(Nc2cc(N3CCN(C)CC3)nc(Sc3ccc(NC(=O)C4CC4)cc3)n2)n[nH]1 [Tozasertib] + N=C(N)NC(=N)NCCc1ccccc1 [Phenformin] (partner 250 µM)
Method in brief: as §1

Tozasertib + AZD7762 = compound: Cc1cc(Nc2cc(N3CCN(C)CC3)nc(Sc3ccc(NC(=O)C4CC4)cc3)n2)n[nH]1 [Tozasertib] + NC(=O)Nc1cc(-c2cccc(F)c2)sc1C(=O)N[C@H]1CCCNC1 [AZD7762] (partner 0.2 µM)
Method in brief: as §1

Tozasertib + Decitabine = compound: Cc1cc(Nc2cc(N3CCN(C)CC3)nc(Sc3ccc(NC(=O)C4CC4)cc3)n2)n[nH]1 [Tozasertib] + Nc1ncn([C@H]2C[C@H](O)[C@@H](CO)O2)c(=O)n1 [Decitabine] (partner 2 µM)
Method in brief: as §1

Cell Line	relative viability (Tozasertib + Trametinib; first compound 0.004 µM)	relative viability (Tozasertib + Trametinib; first compound 0.01265 µM)	relative viability (Tozasertib + Trametinib; first compound 0.04 µM)	relative viability (Tozasertib + Trametinib; first compound 0.1265 µM)	relative viability (Tozasertib + Linsitinib; first compound 0.004 µM)	relative viability (Tozasertib + Linsitinib; first compound 0.01265 µM)	relative viability (Tozasertib + Linsitinib; first compound 0.1265 µM)	relative viability (Tozasertib + Phenformin; first compound 0.004 µM)	relative viability (Tozasertib + Phenformin; first compound 0.01265 µM)	relative viability (Tozasertib + Phenformin; first compound 0.04 µM)	relative viability (Tozasertib + Phenformin; first compound 0.1265 µM)	relative viability (Tozasertib + AZD7762; first compound 0.004 µM)	relative viability (Tozasertib + AZD7762; first compound 0.01265 µM)	relative viability (Tozasertib + AZD7762; first compound 0.04 µM)	relative viability (Tozasertib + AZD7762; first compound 0.1265 µM)	relative viability (Tozasertib + Decitabine; first compound 0.004 µM)	relative viability (Tozasertib + Decitabine; first compound 0.01265 µM)	relative viability (Tozasertib + Decitabine; first compound 0.04 µM)	relative viability (Tozasertib + Decitabine; first compound 0.1265 µM)	relative viability (Tozasertib + Linsitinib; first compound 0.04 µM)
HCC-827	0.493	0.481	0.663	0.512	1.02	1	0.84	0.384	0.403	0.484	0.406	0.16	0.204	0.23	0.2	0.207	0.283	0.305	0.264	–
HOP-62	0.356	0.401	0.401	0.372	1.05	0.876	1.09	0.732	0.578	0.616	0.617	0.505	0.485	0.613	0.289	0.213	0.234	0.194	0.196	–
LC-2-ad	0.942	0.816	0.934	0.743	0.906	0.82	0.329	0.618	0.548	0.514	0.299	0.868	0.763	0.915	0.731	0.87	0.792	0.798	–	0.684
LCLC-97TM1	0.211	0.22	0.239	0.17	–	0.204	0.163	0.438	0.437	0.459	0.407	0.166	0.194	0.164	0.211	0.222	0.232	0.235	0.185	0.155
NCI-H520	0.673	0.645	0.765	0.243	1.07	0.952	0.472	0.546	0.57	0.662	0.234	–	–	–	–	0.533	0.449	0.467	0.296	0.978
NCI-H522	0.825	–	0.671	0.711	–	–	–	0.687	0.62	0.676	0.593	–	0.841	0.772	0.47	0.655	0.746	0.647	0.622	–
NCI-H661	0.564	0.579	0.618	0.336	0.61	0.564	0.402	0.287	0.313	0.319	0.253	–	–	–	–	0.65	0.599	0.569	0.304	0.497
NCI-H1563	–	–	–	–	1.26	1.2	1.12	0.704	0.668	0.721	0.573	–	–	–	–	–	–	–	–	1.14
NCI-H1650	0.482	0.58	0.624	0.175	–	–	–	0.47	0.38	0.595	0.199	–	–	–	–	0.351	0.364	0.404	0.307	–
NCI-H1703	–	–	–	–	1.26	0.833	0.626	–	–	–	–	0.0927	–	0.126	0.12	–	–	–	–	0.808
NCI-H2009	0.288	0.288	0.341	0.216	1.19	1.22	1.19	0.5	0.455	0.476	0.477	–	–	–	–	0.401	0.352	0.416	0.359	1.15
NCI-H2023	0.557	0.455	0.535	0.425	0.626	0.633	0.628	0.393	0.393	0.407	0.258	–	–	–	–	0.223	0.237	0.217	0.169	0.694
NCI-H2170	0.896	0.904	0.94	0.818	–	–	–	0.33	0.364	0.436	0.366	0.81	0.893	0.848	0.788	0.487	0.446	0.474	0.425	–
NCI-H2228	0.485	0.503	0.513	0.345	0.526	–	0.557	0.375	0.298	0.254	0.132	–	–	–	–	–	–	–	–	0.766
NCI-H2342	0.77	0.969	0.849	0.897	–	–	–	0.635	0.607	0.57	0.465	0.578	0.532	0.514	0.398	0.678	0.738	0.723	0.766	–
SK-LU-1	0.447	0.505	0.567	0.461	1.32	1.09	0.957	0.55	0.569	0.578	0.324	–	–	–	–	0.653	0.678	–	0.649	1.03
SK-MES-1	0.589	0.557	0.713	0.616	1.1	1.02	1.1	0.691	0.642	0.71	0.696	–	–	–	–	0.319	0.376	0.434	0.316	1.14
SW 900	0.653	0.798	0.911	0.509	–	–	–	0.583	0.381	0.708	0.586	0.485	0.72	0.622	0.467	0.43	0.442	0.347	0.375	–
SW 1573	0.521	0.652	0.569	0.179	0.76	0.901	0.517	0.35	0.393	0.361	0.284	–	–	–	–	0.351	0.463	0.544	0.176	–
UMC-11	0.794	0.699	0.653	0.259	1.1	1.03	0.173	0.372	0.308	0.3	0.171	–	–	–	–	0.597	0.499	0.548	0.189	1.06
